Results on twelve molecules are retold here after patent US8822469B2, “Pyrrolo[2,3-B]pyrazines useful as inhibitors of ATR kinase” (Vertex Pharmaceuticals Incorporated, priority 2011, dated 2014).

This assay addresses T1, full-length ATR (Homo sapiens, UniProt Q13535).
T1 construct: Assays were carried out at 25° C. in the presence of 5 nM full-length ATR
Nature of the assay: ATR Inhibition Assay (radioactive-phosphate incorporation). In kind it is biochemical. The settings on record: Ki(app); 5 nM full-length ATR, 10 μM [γ-33P]ATP, 800 μM target peptide, 25° C. As for the experimental part: Compounds were screened for their ability to inhibit ATR kinase using a radioactive-phosphate incorporation assay. Assays were carried out in a mixture of 50 mM Tris/HCl (pH 7.5), 10 mM MgCl2 and 1 mM DTT. Final substrate concentrations were 10 μM [γ-33P]ATP (3mCi 33P ATP/mmol ATP, Perkin Elmer) and 800 μM target peptide (ASELPASQPQPFSAKKK).
Assays were carried out at 25° C. in the presence of 5 nM full-length ATR. An assay stock buffer solution was prepared containing all of the reagents listed above, with the exception of ATP and the test compound of interest. 13.5 μL of the stock solution was placed in a 96 well plate followed by addition of 2 μL of DMSO stock containing serial dilutions of the test compound (typically starting from a final concentration of 15 μM with 3-fold serial dilutions) in duplicate (final DMSO concentration 7%). The plate was pre-incubated for 10 minutes at 25° C. and the reaction initiated by addition of 15 μL [γ-33P]ATP (final concentration 10 μM).
The reaction was stopped after […] by the addition of 30 μL 0.1M phosphoric acid containing 2 mM ATP. A multiscreen phosphocellulose filter 96-well plate (Millipore, Cat no. MAPHN0B50) was pretreated with 100 μL 0.2M phosphoric acid prior to the addition of 45 μL of the stopped assay mixture. The plate was washed with 5×200 μL 0.2M phosphoric acid. After drying, 100 μL Optiphase ‘SuperMix’ liquid scintillation cocktail (Perkin Elmer) was added to the well prior to scintillation counting (1450 Microbeta Liquid Scintillation Counter, Wallac).
After removing mean background values for all of the data points, Ki(app) data were calculated from non-linear regression analysis of the initial rate data using the Prism software package (GraphPad Prism version 3.0cx for Macintosh, GraphPad Software, San Diego Calif., USA).

T1 sequence (Q13535 whole entry): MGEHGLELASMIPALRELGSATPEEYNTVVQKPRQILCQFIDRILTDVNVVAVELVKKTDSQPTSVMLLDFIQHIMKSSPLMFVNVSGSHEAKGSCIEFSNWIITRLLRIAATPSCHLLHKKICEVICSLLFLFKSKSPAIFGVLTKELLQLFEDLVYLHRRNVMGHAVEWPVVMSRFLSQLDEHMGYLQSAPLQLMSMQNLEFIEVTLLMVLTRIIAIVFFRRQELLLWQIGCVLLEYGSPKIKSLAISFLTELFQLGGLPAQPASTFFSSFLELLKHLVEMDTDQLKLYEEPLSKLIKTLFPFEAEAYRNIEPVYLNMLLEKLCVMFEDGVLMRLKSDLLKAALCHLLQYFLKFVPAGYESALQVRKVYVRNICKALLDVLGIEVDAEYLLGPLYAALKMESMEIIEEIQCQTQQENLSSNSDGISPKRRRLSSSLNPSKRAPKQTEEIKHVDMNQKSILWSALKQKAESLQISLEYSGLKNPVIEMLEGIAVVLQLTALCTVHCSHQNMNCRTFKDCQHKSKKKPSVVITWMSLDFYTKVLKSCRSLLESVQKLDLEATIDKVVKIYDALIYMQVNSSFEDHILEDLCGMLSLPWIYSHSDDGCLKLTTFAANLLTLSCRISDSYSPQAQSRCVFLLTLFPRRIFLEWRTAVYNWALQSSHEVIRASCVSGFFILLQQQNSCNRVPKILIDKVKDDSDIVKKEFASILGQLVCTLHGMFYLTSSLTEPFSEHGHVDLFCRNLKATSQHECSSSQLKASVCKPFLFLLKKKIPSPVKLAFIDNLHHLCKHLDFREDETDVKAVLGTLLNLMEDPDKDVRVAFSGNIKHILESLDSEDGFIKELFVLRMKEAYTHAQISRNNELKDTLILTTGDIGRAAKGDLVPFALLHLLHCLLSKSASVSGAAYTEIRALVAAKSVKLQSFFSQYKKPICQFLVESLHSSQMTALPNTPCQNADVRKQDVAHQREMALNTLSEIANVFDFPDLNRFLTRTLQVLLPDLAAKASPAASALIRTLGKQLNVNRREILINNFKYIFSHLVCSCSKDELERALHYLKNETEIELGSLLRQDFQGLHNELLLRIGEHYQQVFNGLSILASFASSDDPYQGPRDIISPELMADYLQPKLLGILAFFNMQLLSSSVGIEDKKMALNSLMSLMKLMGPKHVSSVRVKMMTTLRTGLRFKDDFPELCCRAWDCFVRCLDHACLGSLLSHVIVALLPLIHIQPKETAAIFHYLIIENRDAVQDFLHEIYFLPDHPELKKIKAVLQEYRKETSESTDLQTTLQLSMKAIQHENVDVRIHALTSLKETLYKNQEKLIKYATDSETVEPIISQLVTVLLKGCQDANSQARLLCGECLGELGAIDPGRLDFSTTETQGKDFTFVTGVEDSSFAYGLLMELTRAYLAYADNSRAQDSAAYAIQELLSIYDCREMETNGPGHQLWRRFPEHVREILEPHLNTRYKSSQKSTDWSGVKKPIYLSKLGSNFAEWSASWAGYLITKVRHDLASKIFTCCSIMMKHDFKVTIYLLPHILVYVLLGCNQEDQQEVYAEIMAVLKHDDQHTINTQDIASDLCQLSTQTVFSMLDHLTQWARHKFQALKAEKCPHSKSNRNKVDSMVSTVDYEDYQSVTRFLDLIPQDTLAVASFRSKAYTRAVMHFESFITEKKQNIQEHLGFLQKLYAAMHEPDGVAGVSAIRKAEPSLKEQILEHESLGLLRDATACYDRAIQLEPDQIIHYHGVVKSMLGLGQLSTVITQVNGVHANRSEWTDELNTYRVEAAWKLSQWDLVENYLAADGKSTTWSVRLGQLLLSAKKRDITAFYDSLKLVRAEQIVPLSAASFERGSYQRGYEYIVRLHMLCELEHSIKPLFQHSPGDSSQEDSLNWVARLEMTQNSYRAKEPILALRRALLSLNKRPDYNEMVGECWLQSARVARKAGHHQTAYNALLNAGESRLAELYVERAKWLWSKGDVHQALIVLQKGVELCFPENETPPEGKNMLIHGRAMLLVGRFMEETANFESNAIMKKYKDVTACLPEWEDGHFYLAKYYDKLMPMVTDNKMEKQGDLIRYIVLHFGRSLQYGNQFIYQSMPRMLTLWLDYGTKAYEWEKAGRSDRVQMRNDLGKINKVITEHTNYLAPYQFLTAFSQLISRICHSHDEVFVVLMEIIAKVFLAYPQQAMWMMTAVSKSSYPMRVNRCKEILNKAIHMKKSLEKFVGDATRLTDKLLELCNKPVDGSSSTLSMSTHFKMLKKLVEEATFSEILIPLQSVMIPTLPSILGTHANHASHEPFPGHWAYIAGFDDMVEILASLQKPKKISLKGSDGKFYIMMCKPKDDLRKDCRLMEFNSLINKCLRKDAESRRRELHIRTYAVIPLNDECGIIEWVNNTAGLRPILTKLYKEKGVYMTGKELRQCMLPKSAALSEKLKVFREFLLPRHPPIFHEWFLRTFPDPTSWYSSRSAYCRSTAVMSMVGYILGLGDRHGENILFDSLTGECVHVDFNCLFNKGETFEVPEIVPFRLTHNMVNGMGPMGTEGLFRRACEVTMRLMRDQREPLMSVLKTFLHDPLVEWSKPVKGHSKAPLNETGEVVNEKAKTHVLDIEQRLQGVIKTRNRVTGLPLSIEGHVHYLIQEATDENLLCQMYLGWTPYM

Consider `CC(C)S(=O)(=O)c1ccc(-c2cnc3[nH]cc(NC(=O)c4ccccn4)c3n2)cc1` [Compound I-40, N-[2-(4-isopropylsulfonylphenyl)-5H-pyrrolo[2,3-b]pyrazin-7-yl]pyridine-2-carboxamide], for which the Ki fell in the range of 10 to 100 nM. For `CC(C)S(=O)(=O)c1ccc(-c2cnc3[nH]cc(NC(=O)C4CCOC4)c3n2)cc1` (stereo not drawn) [Compound I-36, N-[2-(4-isopropylsulfonylphenyl)-5H-pyrrolo[2,3-b]pyrazin-7-yl]tetrahydrofuran-3-carboxamide], the Ki fell in the range of 100 to 500 nM. On to `CC(CCO)S(=O)(=O)c1ccc(-c2cnc3[nH]cc(NC(=O)c4ccccc4)c3n2)cc1` (stereo not drawn) [Compound I-8], for which the Ki was ≤ 10 nM. Take `CC(C)S(=O)(=O)c1ccc(-c2cnc3[nH]cc(NC(=O)c4cccc(C(=O)O)c4)c3n2)cc1` [Compound I-7, 3-[[2-(4-isopropylsulfonylphenyl)-5H-pyrrolo[2,3-b]pyrazin-7-yl]carbamoyl]benzoic acid]: the Ki was 100 to 500 nM. With `CC(C)S(=O)(=O)c1ccc(-c2cnc3[nH]cc(NC(=O)c4ccc(Cl)cc4)c3n2)cc1` [Compound I-16, 4-chloro-N-[2-(4-isopropylsulfonylphenyl)-5H-pyrrolo[2,3-b]pyrazin-7-yl]benzamide], the Ki was 10 to 100 nM. `CC(C)S(=O)(=O)c1ccc(-c2cnc3[nH]cc(NC(=O)c4ccc(O)cc4)c3n2)cc1` [Compound I-18, 4-hydroxy-N-[2-(4-isopropylsulfonylphenyl)-5H-pyrrolo[2,3-b]pyrazin-7-yl]benzamide]: the Ki was ≤ 10 nM. The same measure for `CC(C)S(=O)(=O)c1ccc(-c2cnc3[nH]cc(NC(=O)c4cncs4)c3n2)cc1` [Compound I-34, N-[2-(4-isopropylsulfonylphenyl)-5H-pyrrolo[2,3-b]pyrazin-7-yl]thiazole-5-carboxamide]: 10 to 100 nM; for `CC(C)S(=O)(=O)c1ccc(-c2cnc3[nH]cc(NC(=O)c4ccc(N5CC[C@H](N)C5)cc4)c3n2)cc1` [Compound I-22, 4-[(3S)-3-aminopyrrolidin-1-yl]-N-[2-(4-isopropylsulfonylphenyl)-5H-pyrrolo[2,3-b]pyrazin-7-yl]benzamide]: ≤ 10 nM. The same measure for `CC(C)S(=O)(=O)c1ccc(-c2cnc3[nH]cc(NC(=O)c4ccc(N5CC[C@@H](N)C5)cc4)c3n2)cc1` [Compound I-41, 4-[(3R)-3-aminopyrrolidin-1-yl]-N-[2-(4-isopropylsulfonylphenyl)-5H-pyrrolo[2,3-b]pyrazin-7-yl]benzamide]: ≤ 10 nM; for `CNCc1ccc(C(=O)Nc2c[nH]c3ncc(-c4ccc(S(=O)(=O)C(C)C)cc4)nc23)cc1` [Compound I-4, N-[2-(4-isopropylsulfonylphenyl)-5H-pyrrolo[2,3-b]pyrazin-7-yl]-4-(methylaminomethyl)benzamide]: ≤ 10 nM. Then `CC(C)S(=O)(=O)c1ccc(-c2cnc3[nH]cc(NC(=O)c4ccc5c(c4)CNC5)c3n2)cc1` [Compound I-24, N-[2-(4-isopropylsulfonylphenyl)-5H-pyrrolo[2,3-b]pyrazin-7-yl]isoindoline-5-carboxamide], with ≤ 10 nM; and `CC(C)S(=O)(=O)c1ccc(-c2cnc3[nH]cc(NC(=O)Cc4ccccc4)c3n2)cc1` [Compound I-10, N-[2-(4-isopropylsulfonylphenyl)-5H-pyrrolo[2,3-b]pyrazin-7-yl]-2-phenyl-acetamide], with 100 to 500 nM.
